Peptide text beside a SMILES is read from it. * marks the point of attachment. X1 = CCCCCCCCCCCCCCCC(=O)OCC(C*)OC(=O)CCCCCCCCCCCCCCC
What was measured:
hTLR2 = biological target: T1, hTLR2 (Homo sapiens, UniProt O60603); assay type: cell-based
T1 construct: host or cells: HEK-293 (293/hTLR2-CD14, clone hTLR 2-luc)
Experimental: (§1) Cells: Human embryonic kidney cells 293 (HEK) were stably transfected with plasmids allowing for the constitutive expression of one or two Toll like Receptors of human origin (hTLR). The resulting cell lines 293/hTLR2-CD14, 293/hTLR3, 293/hTLR4-MD2-CD14, 293/hTLR5, 293/hTLR2/6, 293/hTLR7, 293/hTLR8 and 293/hTLR9 were purchased from InvivoGen (San Diego, Calif., USA). All cell lines were cultivated in the presence of Blasticidin S (10 μg/ml, InvivoGen) in Dulbecco's […] Eagle's medium (DMEM) supplemented with 10% fetal calf serum, 40 μg/ml Gentamycin, 2 mM Glutamine, 1 mM sodium pyruvate (Sigma) and 1× Non Essential Amino acids (NEAA, Gibco). In the case of 293/hTLR2-CD14 and 293/hTLR4-MD2-CD14 Hygromycin B was added to a concentration of 100 μg/ml. All eight cell lines were stably transfected with the NF-kB-inducible reporter plasmid pNiFty (InvivoGen). pNiFty encodes the firefly luciferase gene under control of an engineered ELAM1 promoter which combines five NF-kB sites and the proximal ELAM promoter. Stable transfectants were selected in the presence of 100 μg/ml Zeocin (InvivoGen). The emerging clones “hTLRx-luc” were characterized with respect to EC50 and fold-induction to the respective control TLR ligands. Clones with lowest EC50 and high fold inductions and good/acceptable growth behaviour were chosen.
(§2) In vitro TLR tests—method: Cells diluted in DMEM supplemented with 2% fetal calf serum, 40 μg/ml Gentamycin, 2 mM Glutamine, 1 mM sodium pyruvate (Sigma) and 1×MEM non essential amino acids (NEAA, Gibco) were seeded in 96 well plates. The next day. NA fraction (stock: 1 mg/ml) either alone or in combination with Lipofectin® (as described in Example 1) was added at a concentration of 16 μg/ml and 3-fold serial dilutions thereof. As positive controls, the cell lines were stimulated with a defined amount of their respective reference ligands. The day after stimulation (18-20 hours) later, cells were lysed in 100 μl buffer containing 125 mM Tris pH 7.8, 10 mM EDTA, 5 mM DTT and 5% Triton X-100. Firefly luciferase activity in 10 μl lysate was quantified by integrate measurement of flash luminescence over 1 sec (LB96 P Microlumat, Berthold) after addition of 50 μl luciferase revelation buffer (1× luciferase revelation buffer: 20 mM Tris pH 7.8, 1.07 mM MgCl2, 2.7 mM MgSO4, 0.1 mM EDTA, 33.3 mM DTT, 470 μM luciferine 530 μM ATP and 270 μM CoEnzyme A). The resulting relative light units (RLU) were expressed as percentage of induction compared to the control ligand and analyzed with the Graph Pad Prism 4 software using an equation for sigmoid dose response (determination of EC50).

hTLR2/6 = biological target: T2, hTLR2/6 (Homo sapiens, UniProt O60603+Q9Y2C9); assay type: cell-based
T2 construct: host or cells: HEK-293 (293/hTLR2/6, clone hTLR 2/6-luc)
T2 sequence (O60603 21-784): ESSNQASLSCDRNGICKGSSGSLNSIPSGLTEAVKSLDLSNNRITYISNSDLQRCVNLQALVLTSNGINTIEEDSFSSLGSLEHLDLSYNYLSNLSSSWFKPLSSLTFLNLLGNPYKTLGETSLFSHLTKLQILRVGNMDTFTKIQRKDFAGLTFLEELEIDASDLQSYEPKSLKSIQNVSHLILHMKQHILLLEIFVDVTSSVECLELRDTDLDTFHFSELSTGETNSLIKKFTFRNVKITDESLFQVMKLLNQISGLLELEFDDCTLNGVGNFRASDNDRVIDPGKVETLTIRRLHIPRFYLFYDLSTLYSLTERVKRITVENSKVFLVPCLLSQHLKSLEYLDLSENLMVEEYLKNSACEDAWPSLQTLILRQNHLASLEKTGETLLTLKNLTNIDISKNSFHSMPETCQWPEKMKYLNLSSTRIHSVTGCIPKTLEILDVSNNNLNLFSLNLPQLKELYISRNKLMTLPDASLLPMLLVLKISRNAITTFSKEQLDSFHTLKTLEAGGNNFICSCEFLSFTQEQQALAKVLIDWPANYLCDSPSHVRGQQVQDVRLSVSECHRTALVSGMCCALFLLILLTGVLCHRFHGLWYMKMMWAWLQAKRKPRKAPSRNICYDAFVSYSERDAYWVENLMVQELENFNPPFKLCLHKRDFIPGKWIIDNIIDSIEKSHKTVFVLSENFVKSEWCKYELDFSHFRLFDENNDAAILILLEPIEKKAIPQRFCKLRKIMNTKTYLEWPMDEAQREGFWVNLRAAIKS
T2 sequence (Q9Y2C9 32-796): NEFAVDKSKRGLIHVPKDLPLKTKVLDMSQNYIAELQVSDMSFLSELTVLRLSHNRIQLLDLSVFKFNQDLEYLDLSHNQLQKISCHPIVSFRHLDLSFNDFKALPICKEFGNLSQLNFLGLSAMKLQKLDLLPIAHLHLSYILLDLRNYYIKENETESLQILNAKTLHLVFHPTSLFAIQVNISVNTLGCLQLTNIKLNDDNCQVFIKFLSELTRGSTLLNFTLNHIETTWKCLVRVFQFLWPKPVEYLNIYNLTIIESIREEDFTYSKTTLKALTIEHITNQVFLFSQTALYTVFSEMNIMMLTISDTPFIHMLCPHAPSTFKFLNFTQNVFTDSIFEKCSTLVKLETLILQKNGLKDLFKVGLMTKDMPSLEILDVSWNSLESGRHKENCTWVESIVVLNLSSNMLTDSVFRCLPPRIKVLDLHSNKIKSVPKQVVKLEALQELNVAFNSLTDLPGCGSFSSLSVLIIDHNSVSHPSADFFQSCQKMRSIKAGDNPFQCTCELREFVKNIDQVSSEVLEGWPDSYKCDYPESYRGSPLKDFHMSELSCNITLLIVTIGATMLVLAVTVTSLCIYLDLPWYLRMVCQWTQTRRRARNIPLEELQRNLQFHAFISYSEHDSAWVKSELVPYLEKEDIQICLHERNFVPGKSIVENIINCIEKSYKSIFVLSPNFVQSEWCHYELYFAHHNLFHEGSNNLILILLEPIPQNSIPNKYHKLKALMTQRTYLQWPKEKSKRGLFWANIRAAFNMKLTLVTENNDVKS
Experimental: as §1, §2

hTLR5 = biological target: T3, hTLR5 (Homo sapiens, UniProt O60602); assay type: cell-based
T3 construct: host or cells: HEK-293 (293/hTLR5, clone hTLR 5-luc)
T3 sequence (O60602 21-858): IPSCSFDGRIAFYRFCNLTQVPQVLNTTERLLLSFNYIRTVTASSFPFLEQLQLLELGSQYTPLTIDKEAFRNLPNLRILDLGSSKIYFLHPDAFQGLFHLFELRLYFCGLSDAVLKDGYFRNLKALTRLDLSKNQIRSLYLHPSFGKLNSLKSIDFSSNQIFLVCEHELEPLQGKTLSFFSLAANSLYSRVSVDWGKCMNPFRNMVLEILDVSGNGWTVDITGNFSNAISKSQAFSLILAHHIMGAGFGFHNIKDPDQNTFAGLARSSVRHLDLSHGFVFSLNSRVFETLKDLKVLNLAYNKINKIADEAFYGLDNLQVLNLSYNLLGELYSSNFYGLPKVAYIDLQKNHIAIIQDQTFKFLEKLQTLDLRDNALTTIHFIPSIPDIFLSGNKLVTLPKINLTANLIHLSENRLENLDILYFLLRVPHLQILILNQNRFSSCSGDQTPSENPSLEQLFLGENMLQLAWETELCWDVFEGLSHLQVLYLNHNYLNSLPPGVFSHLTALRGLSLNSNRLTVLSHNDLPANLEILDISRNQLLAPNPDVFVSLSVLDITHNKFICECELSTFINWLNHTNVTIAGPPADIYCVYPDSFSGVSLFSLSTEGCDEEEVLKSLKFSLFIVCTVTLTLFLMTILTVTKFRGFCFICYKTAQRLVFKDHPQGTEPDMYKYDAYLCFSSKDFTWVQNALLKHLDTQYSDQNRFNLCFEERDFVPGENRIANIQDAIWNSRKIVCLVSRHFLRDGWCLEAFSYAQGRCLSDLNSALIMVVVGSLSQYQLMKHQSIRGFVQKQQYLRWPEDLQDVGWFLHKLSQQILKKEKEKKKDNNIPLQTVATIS
Experimental: as §1, §2

[1] = system: R9F specific CD8+ T cells secreting IFN-γ; assay: In vivo ELISpot gamma interferon (IFN-γ) after immunisation with HPV16E7; settings: C57BL/6 mice; HPV16E7 protein 10 μg subcutaneously day 0, 7, 14, alone or with NA fraction (25 μg) or NA-B2 fraction (0.4 μg); splenocytes 7 days after last injection; FIG. 2
Experimental: Animals model: SPF healthy female C57BL/6 mice were obtained from Charles River (Les Oncins, France). The animals were 6-weeks-old upon arrival. At the beginning of experimentation, they were 7-week-old. The animals were housed in a single, exclusive room, air-conditioned to provide a minimum of 11 air changes per hour. The temperature and relative humidity ranges were within 20° C. and 24° C. and 40 to 70% respectively. Lighting was controlled automatically to give a cycle of 12 hours of light and 12 hours of darkness. Specific pathogen free status was checked by regular control of sentinel animals. Throughout the study the animals had access ad libitum to sterilized diet type RM1 (Dietex France, Saint Gratien). Sterile water was provided ad libitum via bottles.
IFN-γ ELIspot assay is a functional test to determine the ability of in vivo primed T cells to secrete IFN-γ upon re-stimulation in vitro with a specific peptide.
Animals were injected 3 times at a one week interval (day 0; day 7; day 14), subcutaneously (at the base of the tail) with preparations as described in Table 4.
Animals were then sacrificed 7 days after the last injection and their splenocytes were used to determine the frequency of R9F specific CD8+ T cells secreting IFN-γ upon re-stimulation. […]

hTLR3 = biological target: T4, hTLR3 (Homo sapiens, UniProt O15455); assay type: cell-based
T4 construct: host or cells: HEK-293 (293/hTLR3, clone hTLR 3-luc)
T4 sequence (O15455 24-904): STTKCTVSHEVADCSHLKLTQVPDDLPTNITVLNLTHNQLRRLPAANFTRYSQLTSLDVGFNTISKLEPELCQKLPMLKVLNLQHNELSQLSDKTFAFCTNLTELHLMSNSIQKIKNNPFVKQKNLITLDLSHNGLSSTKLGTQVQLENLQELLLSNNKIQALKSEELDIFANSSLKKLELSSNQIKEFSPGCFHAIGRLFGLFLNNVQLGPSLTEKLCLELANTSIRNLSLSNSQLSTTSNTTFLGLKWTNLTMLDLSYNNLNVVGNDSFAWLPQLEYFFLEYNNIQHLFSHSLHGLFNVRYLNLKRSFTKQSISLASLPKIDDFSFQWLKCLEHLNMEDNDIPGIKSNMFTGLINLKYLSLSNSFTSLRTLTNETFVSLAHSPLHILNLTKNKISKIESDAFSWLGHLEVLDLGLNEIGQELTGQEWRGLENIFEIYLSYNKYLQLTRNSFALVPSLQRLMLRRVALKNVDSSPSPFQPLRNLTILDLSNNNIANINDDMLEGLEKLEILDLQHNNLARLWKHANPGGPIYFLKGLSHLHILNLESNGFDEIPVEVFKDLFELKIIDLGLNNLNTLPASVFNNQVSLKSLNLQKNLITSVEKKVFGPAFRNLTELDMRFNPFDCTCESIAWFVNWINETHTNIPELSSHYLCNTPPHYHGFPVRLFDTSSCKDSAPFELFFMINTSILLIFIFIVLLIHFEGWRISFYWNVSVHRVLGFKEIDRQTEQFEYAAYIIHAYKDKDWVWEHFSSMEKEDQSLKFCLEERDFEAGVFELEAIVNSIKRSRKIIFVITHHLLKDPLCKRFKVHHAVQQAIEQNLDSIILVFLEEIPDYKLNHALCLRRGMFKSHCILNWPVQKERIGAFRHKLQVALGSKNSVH
Experimental: as §1, §2

T1 sequence (O60603 21-784): as the sequence (O60603 21-784) above
T1 sequence (Q9Y2C9 32-796 partner): as the sequence (Q9Y2C9 32-796) above

Compound: CCCCCCCCCCCCCCCC(=O)OCC(CSC[C@H](N)C(=O)NCC(=O)N[C@@H](CC(=O)O)C(=O)N1CCC[C@H]1C(=O)N[C@@H](CCCCN)C(=O)N[C@@H](Cc1c[nH]cn1)C(=O)N1CCC[C@H]1C(=O)N[C@@H](CCCCN)C(=O)N[C@@H](CO)C(=O)N[C@@H](Cc1ccccc1)C(=O)O)OC(=O)CCCCCCCCCCCCCCC (stereo partly shown) [FSL-1] (H-C(X1)GDPKHPKSF-OH; N-terminus and C-terminus assumed)
- fold induction (hTLR2): 157
- fold induction (hTLR2/6): 140

Compound: Flagellin
- Fold induction max/min (hTLR5): 392
- Ligand EC50 (hTLR5; hTLR 5-luc clone, control TLR ligand): Flagellin 66.2ng/ml

Compound: HPV16E7: HPV16 E7 protein antigen
- Level of R9F specific T cells secreting IFN-γ (ELISpot) [1]: no R9F specific (HPV16E7 protein) T cells secreting IFN-γ

Compound: Poly(I:C)
- Fold induction max/min (hTLR3): 62
- Ligand EC50 (hTLR3; hTLR 3-luc clone, control TLR ligand): Poly(I:C) 1.8ng/ml
